Active and inactive are the calls of the source.
How the values were obtained:
HEK293 [1] = assay: cells; format: functional, cell-based; settings: Homo sapiens
[2] = target: Nucleotide-binding oligomerization domain-containing protein 2 (Homo sapiens, UniProt Q9HC29); assay: inhibition of NOD2-driven NF-kB reporter – cell-based, luminescence, uHTS, HEK293 (AID 1566); format: functional
HEK293 [3] = assay: inhibition of NOD1-driven NF-kB reporter – cell-based, luminescence, uHTS, primary screen (AID 1578); format: functional; settings: Homo sapiens
HEK293 [4] = assay: cells; format: functional, cell-based; settings: Homo sapiens; remark: listed apart in the source
HEK293 [5] = assay: NOD2 signaling inhibitors in MDP-stimulated cells, cell-based, uHTS, luminescence (AID 2001); format: functional; settings: Homo sapiens
HEK293 [6] = assay: cells; format: functional, cell-based; settings: Homo sapiens; remark: listed apart in the source
H4 = assay: Luminescence Cell-Based Dose Response HTS to Identify Activators of 5'UTR Stem-Loop Driven Prion Protein mRNA Translation in H4 Neuroglioblastoma Cells. [Related pubchem assays: 1829 (Project Summary), 1814 (Primary HTS)]; format: functional; settings: Homo sapiens
HEK293 [7] = assay: EBV LMP1 TES2 canonical NF-kB signalling blockers – cell-based, HEK293, luciferase, cherry-pick, dose response (AID 588343); format: functional; settings: Homo sapiens
[8] = blockers of CRF-binding protein–CRF-R2 complex – cell-based, uHTS hits, 384-well, dose response (AID 651639); format: functional, Homo sapiens; settings: read-out: IC50_Mean
[9] = target: T1, Corticotropin-releasing factor receptor 2/Corticotropin-releasing factor-binding protein (Homo sapiens, UniProt P24387+Q13324); assay: Dose Response confirmation of uHTS hits for small molecule antagonists of the CRF-binding protein and CRF-R2 receptor complex.; format: functional; settings: read-out: IC50_Mean
T1 sequence (Q13324 whole entry): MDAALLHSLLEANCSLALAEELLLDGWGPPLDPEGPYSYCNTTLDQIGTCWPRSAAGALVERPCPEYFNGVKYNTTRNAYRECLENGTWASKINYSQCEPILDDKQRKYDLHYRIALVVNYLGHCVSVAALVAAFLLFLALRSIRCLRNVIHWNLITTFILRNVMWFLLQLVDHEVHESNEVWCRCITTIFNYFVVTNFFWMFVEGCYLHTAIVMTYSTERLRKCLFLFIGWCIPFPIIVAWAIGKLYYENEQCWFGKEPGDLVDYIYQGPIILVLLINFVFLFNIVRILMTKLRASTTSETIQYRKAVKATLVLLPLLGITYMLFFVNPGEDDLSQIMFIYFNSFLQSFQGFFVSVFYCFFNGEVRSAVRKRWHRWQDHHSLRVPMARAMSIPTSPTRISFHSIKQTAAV
T1 sequence (P24387 whole entry): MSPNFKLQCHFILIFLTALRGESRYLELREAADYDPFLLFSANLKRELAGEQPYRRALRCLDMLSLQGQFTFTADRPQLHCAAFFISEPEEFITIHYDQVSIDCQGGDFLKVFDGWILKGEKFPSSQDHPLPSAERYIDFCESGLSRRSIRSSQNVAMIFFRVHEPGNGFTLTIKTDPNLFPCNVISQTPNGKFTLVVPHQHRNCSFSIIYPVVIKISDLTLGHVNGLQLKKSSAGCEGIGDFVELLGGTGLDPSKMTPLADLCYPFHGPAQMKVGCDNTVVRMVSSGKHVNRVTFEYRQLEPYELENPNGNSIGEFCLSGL

[10] = target: T1, Corticotropin-releasing factor receptor 2/Corticotropin-releasing factor-binding protein; assay: activators of CRF receptor 2 with binding protein – uHTS hits, confirmation (AID 602473); format: functional; settings: read-out: EC50_Mean
[11] = target: T2, Probable nicotinate-nucleotide adenylyltransferase (Staphylococcus aureus (strain N315), UniProt P65502); format: functional, Staphylococcus aureus subsp. aureus N315; settings: read-out: IC50_Mean;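 on IC50 Mean: confirmatory dose-response retesting of NadD inhibitor hits first found in an ultra-high-throughput screen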
[12] = target: T2, Probable nicotinate-nucleotide adenylyltransferase; format: functional, Staphylococcus aureus subsp. aureus N315
Protein RecA = target: T3, Protein RecA (Mycobacterium tuberculosis, UniProt P9WHJ3); assay: Fluorescence Cell-Free Homogeneous Dose Retest to Identify Inhibitors of RecA-Intein Splicing Activity. [Related pubchem assays (depositor defined):AID2097, AID2223, AID489010, AID492950]; format: functional
T3 sequence (P9WHJ3 whole entry): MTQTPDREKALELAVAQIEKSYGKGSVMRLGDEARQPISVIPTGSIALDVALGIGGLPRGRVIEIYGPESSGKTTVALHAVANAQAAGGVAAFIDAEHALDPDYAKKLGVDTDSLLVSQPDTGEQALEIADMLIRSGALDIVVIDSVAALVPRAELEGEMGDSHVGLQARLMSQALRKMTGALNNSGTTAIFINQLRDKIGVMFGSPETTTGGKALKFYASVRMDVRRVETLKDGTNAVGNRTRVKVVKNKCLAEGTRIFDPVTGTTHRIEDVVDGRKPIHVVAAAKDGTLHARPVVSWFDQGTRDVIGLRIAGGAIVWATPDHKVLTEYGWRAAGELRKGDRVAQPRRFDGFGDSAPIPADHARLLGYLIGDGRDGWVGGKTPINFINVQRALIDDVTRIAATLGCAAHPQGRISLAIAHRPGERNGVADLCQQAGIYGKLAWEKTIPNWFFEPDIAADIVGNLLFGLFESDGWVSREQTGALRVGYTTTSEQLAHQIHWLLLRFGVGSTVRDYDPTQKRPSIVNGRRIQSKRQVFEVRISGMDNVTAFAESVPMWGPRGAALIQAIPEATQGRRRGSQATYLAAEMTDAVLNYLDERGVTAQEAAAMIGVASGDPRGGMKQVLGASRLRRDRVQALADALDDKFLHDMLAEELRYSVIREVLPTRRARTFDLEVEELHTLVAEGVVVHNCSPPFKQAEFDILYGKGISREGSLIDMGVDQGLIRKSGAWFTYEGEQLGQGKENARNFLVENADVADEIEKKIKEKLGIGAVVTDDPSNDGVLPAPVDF

[13] = target: T4, Replicative DNA helicase DnaB (Mycobacterium tuberculosis, UniProt P9WMR3); assay: DnaB intein splicing inhibitors, dose response, biochemical, cell-free fluorescence (AID 449749); format: functional
T4 sequence (P9WMR3 whole entry): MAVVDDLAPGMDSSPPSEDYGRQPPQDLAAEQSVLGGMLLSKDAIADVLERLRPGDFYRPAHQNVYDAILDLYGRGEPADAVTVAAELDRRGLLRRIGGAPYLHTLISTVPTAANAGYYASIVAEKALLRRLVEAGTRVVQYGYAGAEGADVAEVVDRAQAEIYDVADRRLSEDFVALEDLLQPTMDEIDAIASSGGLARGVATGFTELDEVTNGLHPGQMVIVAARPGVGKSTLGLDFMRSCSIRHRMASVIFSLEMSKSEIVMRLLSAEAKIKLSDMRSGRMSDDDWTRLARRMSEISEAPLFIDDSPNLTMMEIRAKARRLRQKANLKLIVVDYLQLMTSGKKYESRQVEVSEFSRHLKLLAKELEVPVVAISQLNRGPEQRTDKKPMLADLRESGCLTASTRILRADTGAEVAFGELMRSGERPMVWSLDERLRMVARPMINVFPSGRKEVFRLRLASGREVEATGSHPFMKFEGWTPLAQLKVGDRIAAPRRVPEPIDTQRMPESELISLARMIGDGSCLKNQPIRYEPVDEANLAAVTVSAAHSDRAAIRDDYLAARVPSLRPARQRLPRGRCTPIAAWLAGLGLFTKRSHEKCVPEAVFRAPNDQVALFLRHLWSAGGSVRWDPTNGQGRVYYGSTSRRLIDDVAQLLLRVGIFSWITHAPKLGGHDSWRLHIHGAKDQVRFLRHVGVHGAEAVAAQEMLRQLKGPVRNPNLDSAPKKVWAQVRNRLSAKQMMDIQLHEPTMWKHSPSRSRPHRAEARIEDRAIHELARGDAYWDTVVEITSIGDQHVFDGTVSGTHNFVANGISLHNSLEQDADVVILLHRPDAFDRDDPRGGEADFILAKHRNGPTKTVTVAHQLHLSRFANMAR

T2 sequence (P65502 whole entry): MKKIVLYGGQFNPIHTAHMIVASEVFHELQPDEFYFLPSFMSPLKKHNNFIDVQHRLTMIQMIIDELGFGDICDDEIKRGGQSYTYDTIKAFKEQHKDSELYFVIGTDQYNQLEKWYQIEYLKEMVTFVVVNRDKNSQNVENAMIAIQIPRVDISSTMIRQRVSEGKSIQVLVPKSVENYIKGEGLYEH
Chain of Nucleotide-binding oligomerization domain-containing protein 2 (Q9HC29 whole entry, the tested form may be a part): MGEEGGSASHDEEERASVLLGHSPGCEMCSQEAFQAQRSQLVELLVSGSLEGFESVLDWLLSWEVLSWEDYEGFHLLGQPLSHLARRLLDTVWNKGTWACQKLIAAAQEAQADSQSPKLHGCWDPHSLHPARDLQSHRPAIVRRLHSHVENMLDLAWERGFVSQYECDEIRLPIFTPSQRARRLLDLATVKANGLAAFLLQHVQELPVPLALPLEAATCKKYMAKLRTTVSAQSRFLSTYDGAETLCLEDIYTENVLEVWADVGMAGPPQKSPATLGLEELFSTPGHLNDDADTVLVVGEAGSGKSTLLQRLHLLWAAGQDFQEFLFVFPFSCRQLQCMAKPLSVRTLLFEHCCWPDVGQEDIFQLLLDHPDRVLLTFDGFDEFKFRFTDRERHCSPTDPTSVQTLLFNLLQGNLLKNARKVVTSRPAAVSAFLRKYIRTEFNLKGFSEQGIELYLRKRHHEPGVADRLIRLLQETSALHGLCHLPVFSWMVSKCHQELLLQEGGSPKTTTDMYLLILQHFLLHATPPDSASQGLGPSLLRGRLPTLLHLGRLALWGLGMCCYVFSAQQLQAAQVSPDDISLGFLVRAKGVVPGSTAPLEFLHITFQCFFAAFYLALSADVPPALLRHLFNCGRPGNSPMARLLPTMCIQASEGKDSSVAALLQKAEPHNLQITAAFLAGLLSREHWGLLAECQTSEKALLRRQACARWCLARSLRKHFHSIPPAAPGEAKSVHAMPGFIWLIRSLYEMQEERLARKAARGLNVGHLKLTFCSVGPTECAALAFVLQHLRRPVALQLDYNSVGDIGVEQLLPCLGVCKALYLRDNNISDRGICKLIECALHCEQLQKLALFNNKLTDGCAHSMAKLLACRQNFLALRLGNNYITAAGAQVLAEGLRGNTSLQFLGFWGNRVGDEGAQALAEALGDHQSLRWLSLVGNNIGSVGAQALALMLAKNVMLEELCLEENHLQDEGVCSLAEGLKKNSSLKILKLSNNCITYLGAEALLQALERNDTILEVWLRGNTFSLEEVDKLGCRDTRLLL

SMILES: CCS(=O)(=O)c1nnnn1-c1ccccc1S(C)(=O)=O
- IC50 (HEK293 [1]): 6.55 µM (active)
- EC50 [2]: > 20 µM (inactive)
- EC50 (HEK293 [3]): 11.7 µM (active)
- IC50 (HEK293 [4]): > 20 µM (inactive)
- IC50 (HEK293 [5]): 9.2 µM (active)
- IC50 (HEK293 [6]): > 20 µM (inactive)
- EC50 (H4): > 120 µM (not active)
- AC50 (HEK293 [7]): 11.3 µM (active)

SMILES: CCC(=O)N(Cc1c(C)nn(-c2ccccc2)c1Cl)c1ccc(Cl)cc1
- IC50 [8]: 19.8 µM (active)
- IC50 [9]: 7.02 µM (active)
- EC50 [10]: > 53 µM (inactive)

SMILES: O=C(Cc1cc(O)[nH]n1)N/N=C/C=C/c1ccccc1
- IC50 [11]: 23.5 µM (active)
- IC50 [12]: 7.45 µM (active)
- EC50 (Protein RecA): 2.76 µM (active)
- AC50 [13]: 3.17 µM (active)

SMILES: COC(=O)c1cc(C#N)c(NCc2ccccc2)nc1C
- IC50 [8]: > 20 µM (inactive)
- IC50 [9]: 8.02 µM (active)
- EC50 [10]: > 53 µM (inactive)
